Literature values in patent publication US12223643B2, “Machine-learning system for diagnosing disorders and diseases and determining drug responsiveness” (Sanford Burnham Prebys Medical Discovery Institute, priority 2019, dated 2025).

System: bipolar disorder (BPD) patients

For `O=C([O-])[O-].[Li+].[Li+]` [Lithium carbonate], the “patients respond to lithium treatment” value is listed as “approximately 35%” and the risk of suicide is listed as “reduce the risk of suicide”.
